Measured values reported in paper PMC8217011, “Natural brominated phenoxyphenols kill persistent and biofilm-incorporated cells of MRSA and other pathogenic bacteria” (Applied Microbiology and Biotechnology, 2020).

Experiments:
Type in all cases: cell-based, Staphylococcus aureus
[1] = test system: MRSA strain containing pLA03::tetR; test: MIC in recombinant strain, tetR overexpression; conditions: for MIC: Staphylococcus aureus, MRSA
Protocol: (§1) To corroborate the role as potential determinants of resistance, mtlA and tetR were overexpressed under control of an anhydrotetracycline (Atc)-inducible promoter, and the effect on sensitivity toward 3-bromo-PP was analysed (Fig. 4e). […] However, induction of mtlA or tetR expression in the presence of Atc strongly rendered the cells more susceptible to 3-bromo-PP resulting in MICs of 0.019 μM for mtlA and 0.078 μM for tetR overexpression, respectively. This translates into a […] and 8-fold increased sensitivity during mtlA or tetR overexpression, respectively, compared with the empty vector control (Fig. 4e).

[2] = test system: MtlA; test: Global proteome analysis of sublethally treated cells; conditions: Mu50 cells, sublethal concentration allowing ca. 50% residual growth
Protocol: After in-solution digestion (ISD) peptides were desalted on home-made C18 StageTips (Rappsilber et al. [2007]). Briefly, the peptide solution was passed over the MeOH pre-conditioned and 0.5% formic acid (FA) equilibrated StageTip. Immobilised peptides were then washed twice with 0.5% (v/v) FA. Washed peptides were eluted from the StageTips with 80% (v/v) ACN and 0.5% (v/v) FA and dried using a vacuum concentrator (Eppendorf). Before LC-MS, peptide samples were resuspended in 10 μL 0.1% (v/v) FA.
LC-MS/MS experiments were performed on an Orbitrap Elite instrument (Michalski et al. [2012]) (Thermo) that was coupled to an EASY-nLC 1000 liquid chromatography (LC) system (Thermo). […] Product ion spectra were recorded in a data-dependent fashion in the ion trap (ITMS) in a variable scan range and at a rapid scan rate. […] Peptides were analysed using a repeating cycle consisting of a full precursor ion scan (1.0 × 10^6 ions or 50 ms) followed by 15 product ion scans (1.0 × 10^4 ions or 100 ms), where peptides are isolated based on their intensity in the full survey scan (threshold of 500 counts) for tandem mass spectrum (MS2) generation that permits peptide sequencing and identification. […]
RAW spectra were submitted to an Andromeda (Cox et al. [2011]) search in MaxQuant (version 1.5.3.30) using the default settings (Cox and Mann [2008]). Label-free quantification was activated (Cox et al. [2014]). […]

[3] = test system: MRSA strain containing pLA03::mtlA; test: MIC in recombinant strain, mtlA overexpression; conditions: for MIC: Staphylococcus aureus, MRSA
Protocol: as §1

[4] = induced with Atc (1 μg/mL anhydrotetracycline)

Oc1c(Br)cc(Br)c(Br)c1Oc1ccc(Br)cc1Br [3-bromo-PP, 3,4,6-tribromo-2-(2′,4′-dibromophenoxy)phenol]
MIC [1, 4]: 0.078 µM
MIC ([1]; non-induced): 0.312 µM
increased sensitivity compared with the empty vector control ([1]; tetR overexpression): 8 fold
downregulation of MtlA protein [2]: approx. 2.5 fold
MIC [3, 4]: 0.019 µM
MIC ([3]; non-induced): 0.312 µM
increased sensitivity compared with the empty vector control ([3]; mtlA overexpression): 33 fold
